What was measured:
[1] = target: T1, Broad substrate specificity ATP-binding cassette transporter ABCG2 (Homo sapiens, UniProt Q9UNQ0); assay: Inhibition of ABCG2-mediated drug efflux expressed in human NCI-H460 cells; type: cell-based
T1 sequence (Q9UNQ0 whole entry): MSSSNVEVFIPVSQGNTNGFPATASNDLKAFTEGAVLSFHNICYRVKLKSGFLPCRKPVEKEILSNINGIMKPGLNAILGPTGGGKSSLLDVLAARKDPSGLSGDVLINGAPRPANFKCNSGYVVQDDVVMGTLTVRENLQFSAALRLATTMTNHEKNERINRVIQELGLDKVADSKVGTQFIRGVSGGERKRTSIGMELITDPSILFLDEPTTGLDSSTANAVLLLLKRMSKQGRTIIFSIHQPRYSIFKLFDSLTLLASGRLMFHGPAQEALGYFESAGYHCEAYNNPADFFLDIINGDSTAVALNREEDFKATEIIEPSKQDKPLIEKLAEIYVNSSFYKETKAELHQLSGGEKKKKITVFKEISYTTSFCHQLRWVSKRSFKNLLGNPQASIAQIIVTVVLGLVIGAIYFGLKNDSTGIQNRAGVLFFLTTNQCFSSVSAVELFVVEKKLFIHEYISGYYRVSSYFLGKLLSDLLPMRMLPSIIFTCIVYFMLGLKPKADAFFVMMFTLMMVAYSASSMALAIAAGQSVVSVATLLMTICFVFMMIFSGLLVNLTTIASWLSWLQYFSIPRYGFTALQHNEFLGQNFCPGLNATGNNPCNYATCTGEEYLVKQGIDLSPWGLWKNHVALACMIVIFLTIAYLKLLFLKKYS

[2] = target: T1, Broad substrate specificity ATP-binding cassette transporter ABCG2; assay: Inhibition of ABCG2 expressed in human NCI-H460 cells assessed as inhibition of PhA accumulation relative to fumitremorgin C; type: cell-based

SMILES	IC50 ([1]; nci-h460)	inhibition (INH) [2]	IC50 ([1]; read-out: IC50)
COc1cc(O)c2c(O)c3c(=O)cc(C)oc3c(OC)c2c1	Not Active	Not Active	–
CCCc1cc(=O)c2c(O)c3c(O)cc(OC)cc3c(OC)c2o1	Not Active	Not Active	–
COc1c(O)c2c(=O)cc(C)oc2c2c(OC)cc(O)cc12	–	59.3%	11.9 µM
COc1c(OC)c2c(=O)cc(C)oc2c2c(OC)cc(O)cc12	Not Active	Not Active	–
COc1cc(O)cc2cc3oc(C)cc(=O)c3c(O)c12	Not Active	Not Active	–
CCCc1cc(=O)c2c(OC)c(OC)c3cc(O)cc(OC)c3c2o1	–	44%	16.6 µM
CCCc1cc(=O)c2c(O)c(OC)c3cc(O)cc(OC)c3c2o1	–	27.5%	> 20 µM

Continued, values first:

IC50 ([1]; nci-h460)	inhibition (INH) [2]	IC50 ([1]; read-out: IC50)	SMILES
–	46.3%	5.9 µM	CCCc1cc(=O)c2c(OC)cc3cc(O)cc(OC)c3c2o1
Not Active	Not Active	–	CCCc1cc(=O)c2c(O)c3c(OC)cc(O)cc3cc2o1
–	31%	12.8 µM	COc1cc(O)cc2cc(O)c3c(=O)cc(C)oc3c12
–	54.3%	9 µM	CCCc1cc(=O)c2c(O)cc3cc(O)cc(OC)c3c2o1 [COMAPARVIN]
